Test results reported in PMC8766924 (Angewandte Chemie (International ed. in English), 2021).

Tests used:
[1] = tested on: Y5R; details: still binds Y5R but not other Y receptors; cited from earlier work
[2] = tested on: Y5R; assay: Calcium flux assay of NPY analogs; type: cell-based; details: Figure 3B-C, at least two independent experiments in triplicates
[3] = molecular target: T1, A^4.67-Y5R (Homo sapiens, UniProt Q15761, V181A); type: cell-based; details: Figure 6C; transiently transfected COS-7
T1 sequence (Q15761 1-445 V181A): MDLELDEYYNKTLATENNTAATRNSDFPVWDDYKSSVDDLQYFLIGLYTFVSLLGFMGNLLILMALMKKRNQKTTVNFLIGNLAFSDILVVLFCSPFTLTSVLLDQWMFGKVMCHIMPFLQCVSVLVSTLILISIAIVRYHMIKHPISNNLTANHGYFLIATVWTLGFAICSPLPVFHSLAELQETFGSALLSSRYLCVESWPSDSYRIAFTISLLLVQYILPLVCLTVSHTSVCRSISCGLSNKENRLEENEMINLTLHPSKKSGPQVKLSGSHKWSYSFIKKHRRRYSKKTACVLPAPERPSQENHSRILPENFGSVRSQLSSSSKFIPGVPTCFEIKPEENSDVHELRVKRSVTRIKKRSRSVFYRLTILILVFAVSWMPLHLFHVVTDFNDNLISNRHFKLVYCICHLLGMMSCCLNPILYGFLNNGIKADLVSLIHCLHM

T32P-NPY: NPY with Thr32 substituted to Pro
Receptor selectivity [1]: selective Y5R agonist

[Y^36A]-NPY: NPY with Y^36 substituted by Ala
Potency loss at wt Y5R compared to NPY [2]: 43 fold

A^28-NPY: NPY analog carrying Ala at position 28
Potency at A^4.67-Y5R compared to wt NPY [3]: lower potency

W^36-NPY: NPY with Y^36 substituted by Trp
Potency loss at wt Y5R compared to NPY [2]: 2 fold
